# In patent publication US11358969B2, “Indole AHR inhibitors and uses thereof” (Ikena Oncology, Inc., priority 2017, dated 2022):
# Biological target: T1, AHR (UniProt P35869)
# T1 construct: IC50
# T1 sequence (P35869 1-848): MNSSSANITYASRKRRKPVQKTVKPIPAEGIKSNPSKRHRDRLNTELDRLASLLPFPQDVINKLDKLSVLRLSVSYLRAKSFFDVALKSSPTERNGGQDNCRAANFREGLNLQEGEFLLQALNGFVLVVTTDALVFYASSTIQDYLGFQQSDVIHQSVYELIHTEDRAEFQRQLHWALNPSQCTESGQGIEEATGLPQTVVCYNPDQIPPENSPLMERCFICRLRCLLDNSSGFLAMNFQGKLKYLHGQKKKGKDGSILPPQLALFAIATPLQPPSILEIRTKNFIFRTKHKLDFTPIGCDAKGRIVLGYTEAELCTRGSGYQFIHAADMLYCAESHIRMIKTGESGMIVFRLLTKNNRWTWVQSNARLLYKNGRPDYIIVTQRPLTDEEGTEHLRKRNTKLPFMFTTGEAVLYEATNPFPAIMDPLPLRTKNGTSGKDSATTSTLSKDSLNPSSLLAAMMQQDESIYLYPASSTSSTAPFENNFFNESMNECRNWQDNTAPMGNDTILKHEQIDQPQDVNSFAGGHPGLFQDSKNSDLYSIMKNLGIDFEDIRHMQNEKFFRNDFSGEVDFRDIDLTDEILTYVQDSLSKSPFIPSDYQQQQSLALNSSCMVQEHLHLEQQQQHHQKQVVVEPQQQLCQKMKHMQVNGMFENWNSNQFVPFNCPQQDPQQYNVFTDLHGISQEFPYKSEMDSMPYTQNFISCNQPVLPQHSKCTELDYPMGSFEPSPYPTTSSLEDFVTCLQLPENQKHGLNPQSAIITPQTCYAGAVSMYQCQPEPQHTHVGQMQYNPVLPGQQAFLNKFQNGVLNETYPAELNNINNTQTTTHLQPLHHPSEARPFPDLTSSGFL
# Test: DRE-Luciferase Reporter Assay (Alternate Method) (Example 1B)
# Assay type: cell-based, murine or human
# Settings: cell line and AHR activating ligand not specified
row,SMILES,IC50 [nM]
1,COc1cncc(-c2cc(NC3CCc4[nH]c5ccccc5c4C3)n3ncc(C(C)C)c3n2)c1 (centres unmarked) [I-236],> 1500
2,CC(C)c1cnn2c(NC3CCc4[nH]c5ccccc5c4C3)cc(-c3cccc(F)c3)nc12 (centres unmarked) [I-238],> 1500
3,CC(C)c1cnn2c(NC3CCc4[nH]c5ccccc5c4C3)cc(-c3ccc4c(c3)OCO4)nc12 (centres unmarked) [I-239],> 1500
4,Cc1cnn2c(N[C@@H]3CCc4[nH]c5c(F)cc(F)cc5c4C3)cc(-c3cncc(F)c3)nc12 [I-243a],> 1500
5,Cc1cnn2c(N[C@H]3CCc4[nH]c5c(F)cc(F)cc5c4C3)cc(-c3cncc(F)c3)nc12 [I-243b],> 1500
6,"CC(C)c1cnn2c(N[C@@H]3CCc4[nH]c5ccccc5c4C3)cc(-c3cccnc3)nc12 [I-245, (3R)—N-[3-Isopropyl-5-(3-pyridyl)pyrazolo[1,5-a]pyrimidin-7-yl]-2,3,4,9-tetrahydro-1H-carbazol-3-amine]",> 1500
7,"CC(C)c1cnn2c(NCCc3c[nH]c4ccccc34)cc(-c3ccc4c(c3)OCO4)nc12 [I-246, 5-(1,3-Benzodioxol-5-yl)-N-[2-(1H-indol-3-yl)ethyl]-3-isopropyl-pyrazolo[1,5-a]pyrimidin-7-amine]",1000 to 1500
8,CC(C)c1cnn2c(NC3CCc4[nH]c5ccccc5c4C3)nc(N(C)C)nc12 (centres unmarked) [I-250],> 1500
9,"Fc1cncc(-c2nc(N[C@H]3CCc4[nH]ccc4C3)c3ncccc3n2)c1 [I-252a, 2-(5-Fluoro-3-pyridyl)-N-[(5S)-4,5,6,7-tetrahydro-1H-indol-5-yl]pyrido[3,2-d]pyrimidin-4-amine]",< 500
10,"Fc1cncc(-c2nc(N[C@@H]3CCc4[nH]ccc4C3)c3ncccc3n2)c1 [I-252b, 2-(5-Fluoro-3-pyridyl)-N-[(5R)-4,5,6,7-tetrahydro-1H-indol-5-yl]pyrido[3,2-d]pyrimidin-4-amine]",< 500
11,"CC(C)c1cnn2c(N[C@@H]3CCc4[nH]c5ccccc5c4C3)nc(N3CCOCC3)nc12 [I-254, (3R)—N-(8-Isopropyl-2-morpholino-pyrazolo[1,5-a][1,3,5]triazin-4-yl)-2,3,4,9-tetrahydro-1H-carbazol-3-amine]",> 1500
12,"Fc1cncc(-c2nc(N[C@@H]3CCc4[nH]c5ccccc5c4C3)c3nccn3n2)c1 [I-256, (3R)—N-[2-(5-fluoro-3-pyridyl)imidazo[2,1-f][1,2,4]triazin-4-yl]-2,3,4,9-tetrahydro-1H-carbazol-3-amine]",< 500
13,"CC(C)c1cnn2c(N[C@@H]3CCc4[nH]c5ccccc5c4C3)nc(C3CCOCC3)nc12 [I-258, (3R)—N-(8-Isopropyl-2-tetrahydropyran-4-yl-pyrazolo[1,5-a][1,3,5]triazin-4-yl)-2,3,4,9-tetrahydro-1H-carbazol-3-amine]",> 1500
14,CC(C)c1cnn2c(NC3CCc4[nH]c5ccccc5c4C3)nc(N3CCN(C)CC3)nc12 (centres unmarked) [I-260],> 1500
15,CC(C)c1cnn2c(NC3CCc4[nH]c5ccccc5c4C3)nc(-c3cccc(OC(F)(F)F)c3)nc12 (centres unmarked) [I-261],> 1500
16,"CC(C)c1cnn2c(N[C@@H]3CCc4[nH]c5ccccc5c4C3)nc(N3CCCCC3)nc12 [I-264, (3R)—N-[8-Isopropyl-2-(1-piperidyl)pyrazolo[1,5-a][1,3,5]triazin-4-yl]-2,3,4,9-tetrahydro-1H-carbazol-3-amine]",> 1500
17,CC(C)c1cnn2c(NC3CCc4[nH]c5ccccc5c4C3)nc(C3CCCCC3)nc12 (centres unmarked) [I-268],> 1500
18,CC(C)c1cnn2c(NC3CCc4[nH]c5ccccc5c4C3)nc(-c3ccc(OC(F)(F)F)cc3)nc12 (centres unmarked) [I-269],> 1500
19,CC(C)c1cnn2c(NC3CCc4[nH]c5ccccc5c4C3)nc(-c3ccc4c(c3)OC(F)(F)O4)nc12 (centres unmarked) [I-271],> 1500
20,CC(C)c1cnn2c(NC3CCc4[nH]c5ccccc5c4C3)nc(-c3ccc(=O)n(C)c3)nc12 (centres unmarked) [I-272],> 1500

# Next, values leading:
row,IC50 [nM],SMILES
1,500 to 1000,"CC(C)c1cnn2c(N[C@@H]3Cc4ccc(O)cc4C3)cc(-c3cncc(F)c3)nc12 [I-234, (2R)-2-[[5-(5-Fluoro-3-pyridyl)-3-isopropyl-pyrazolo[1,5-a]pyrimidin-7-yl]amino]indan-5-ol]"
2,< 500,"CCc1cnn2c(NCCc3c[nH]c4ccccc34)cc(-c3cncc(F)c3)nc12 [I-237, 3-Ethyl-5-(5-fluoro-3-pyridyl)-N-[2-(1H-indol-3-yl)ethyl]pyrazolo[1,5-a]pyrimidin-7-amine]"
3,> 1500,"COc1ccccc1-c1cc(NCCc2c[nH]c3ccccc23)n2ncc(C(C)C)c2n1 [I-240, N-[2-(1H-indol-3-yl)ethyl]-3-isopropyl-5-(2-methoxyphenyl)pyrazolo[1,5-a]pyrimidin-7-amine]"
4,< 500,"CC(C)c1cnn2c(NCCc3c[nH]c4ccccc34)cc(-c3cncnc3)nc12 [I-241, N-[2-(1H-Indol-3-yl)ethyl]-3-isopropyl-5-pyrimidin-5-yl-pyrazolo[1,5-a]pyrimidin-7-amine]"
5,< 500,"CC(C)c1cnn2c(NCCc3c[nH]c4ccccc34)cc(-c3cccc(F)c3)nc12 [I-242, 5-(3-fluorophenyl)-N-[2-(1H-indol-3-yl)ethyl]-3-isopropyl-pyrazolo[1,5-a]pyrimidin-7-amine]"
6,< 500,"CC(C)c1cnn2c(N[C@H]3CCc4[nH]c(-c5ccccc5)cc4C3)nc(-c3cncc(F)c3)nc12 [I-249a, 2-(5-Fluoro-3-pyridyl)-8-isopropyl-N-[(5S)-2-phenyl-4,5,6,7-tetrahydro-1H-indol-5-yl]pyrazolo[1,5-a][1,3,5]triazin-4-amine]"
7,< 500,"CC(C)c1cnn2c(N[C@@H]3CCc4[nH]c(-c5ccccc5)cc4C3)nc(-c3cncc(F)c3)nc12 [I-249b, 2-(5-Fluoro-3-pyridyl)-8-isopropyl-N-[(5R)-2-phenyl-4,5,6,7-tetrahydro-1H-indol-5-yl]pyrazolo[1,5-a][1,3,5]triazin-4-amine]"
8,> 1500,CN1CCN(C(=O)c2cnn3c(NC4CCc5[nH]c6ccccc6c5C4)nc(-c4cncc(F)c4)nc23)CC1 (centres unmarked) [I-251]
9,< 500,"Fc1cncc(-c2nc(N[C@@H]3CCc4[nH]c5ccccc5c4C3)n3ncc(-c4ccn[nH]4)c3n2)c1 [I-253, (3R)—N-[2-(5-Fluoro-3-pyridyl)-8-(1H-pyrazol-5-yl)pyrazolo[1,5-a][1,3,5]triazin-4-yl]-2,3,4,9-tetrahydro-1H-carbazol-3-amine]"
10,< 500,"CC(C)c1cnn2c(N[C@@H]3CCc4[nH]c5ccccc5c4C3)nc(-c3cccnc3)nc12 [I-255, (3R)—N-[8-Isopropyl-2-(3-pyridyl)pyrazolo[1,5-a][1,3,5]triazin-4-yl]-2,3,4,9-tetrahydro-1H-carbazol-3-amine]"
11,< 500,"Fc1cncc(-c2nc(NCCc3c[nH]c4ccccc34)c3ncccc3n2)c1 [I-257, 2-(5-Fluoro-3-pyridyl)-N-[2-(1H-indol-3-yl)ethyl]pyrido[3,2-d]pyrimidin-4-amine]"
12,< 500,"Cc1cnn2c(N[C@@H]3CCc4[nH]ccc4C3)nc(-c3cncc(F)c3)nc12 [I-259b, 2-(5-Fluoro-3-pyridyl)-8-methyl-N-[(5R)-4,5,6,7-tetrahydro-1H-indol-5-yl]pyrazolo[1,5-a][1,3,5]triazin-4-amine]"
13,< 500,"O=C(c1cnn2c(N[C@@H]3CCc4[nH]c5ccccc5c4C3)nc(-c3cncc(F)c3)nc12)N1CCOCC1 [I-262, [2-(5-Fluoro-3-pyridyl)-4-[[(3R)-2,3,4,9-tetrahydro-1H-carbazol-3-yl]amino]pyrazolo[1,5-a][1,3,5]triazin-8-yl]-morpholino-methanone]"
14,1000 to 1500,"CC(C)c1cnn2c(N[C@H]3Cc4[nH]c5ccccc5c4C3)nc(-c3cncc(F)c3)nc12 [I-263b, (2R)—N-[2-(5-fluoro-3-pyridyl)-8-isopropyl-pyrazolo[1,5-a][1,3,5]triazin-4-yl]-1,2,3,4-tetrahydrocyclopenta[b]indol-2-amine]"
15,< 500,"NC(=O)c1cnn2c(N[C@@H]3CCc4[nH]c5ccccc5c4C3)nc(-c3cncc(F)c3)nc12 [I-265, 2-(5-Fluoro-3-pyridyl)-4-[[(3R)-2,3,4,9-tetrahydro-1H-carbazol-3-yl]amino]pyrazolo[1,5-a][1,3,5]triazine-8-carboxamide]"
16,> 1500,CC(C)c1cnn2c(NCCc3c[nH]c(N)n3)nc(-c3cncc(F)c3)nc12 [I-266]
17,< 500,"Fc1cncc(-c2nc(N[C@@H]3CCc4[nH]c5ccccc5c4C3)n3ncc(C(F)(F)F)c3n2)c1 [I-267, (3R)—N-[2-(5-Fluoro-3-pyridyl)-8-(trifluoromethyl)pyrazolo[1,5-a][1,3,5]triazin-4-yl]-2,3,4,9-tetrahydro-1H-carbazol-3-amine]"
18,< 500,"CC(C)c1cnn2c(N[C@@H]3CCc4[nH]c5ccccc5c4C3)nc(-c3cncnc3)nc12 [I-270, (3R)—N-(8-Isopropyl-2-pyrimidin-5-yl-pyrazolo[1,5-a][1,3,5]triazin-4-yl)-2,3,4,9-tetrahydro-1H-carbazol-3-amine]"
19,1000 to 1500,Fc1cncc(-c2nc(NC3CCc4[nH]c5ccccc5c4C3)n3ncc(-c4ncc[nH]4)c3n2)c1 (centres unmarked) [I-273]
20,< 500,Fc1cncc(-c2nc(NC3CCc4[nH]c5ccccc5c4C3)n3ncc(-c4cnc[nH]4)c3n2)c1 (centres unmarked) [I-274]
21,< 500,O=Cc1cnn2c(NC3CCc4[nH]c5ccccc5c4C3)nc(-c3cncc(F)c3)nc12 (centres unmarked) [I-275]
